“Also recorded” adds a separate entry of the source.
Columns and labels:
[1] = test system: barnacle cement polymerization; experiment: Barnacle cement polymerization in presence of anticoagulants, protein profile by SDS-PAGE; assay type: biochemical; details: for inhibition of polymerization of barnacle cement (number and intensity of proteins): 2 μl anticoagulant added to 1 μl unpolymerized cement of thick, gummy phenotype barnacle, 2 minutes, versus distilled water
Description: FIG. 6. Protein profile for barnacle cement polymerized in the presence of distilled water (control) or one of 5 anticoagulants heparin, warfarin, trypsin inhibitor, EGTA or EDTA. Each peak represents an individual protein. For each treatment, 2 μl of either distilled water or anticoagulant was added to 1 μl unpolymerized cement taken from a thick, gummy phenotype barnacle. Polymerization was allowed to proceed for 2 minutes. Samples were analyzed with SDS-PAGE using a 4-20% acrylamide gel. The gel was stained with Coomassie Blue and analyzed using Scion Image.
Each peak represents an individual protein. For each treatment, 2 μl of either distilled water or anticoagulant was added to 1 μl unpolymerized cement taken from a thick, gummy phenotype barnacle. Polymerization was allowed to proceed for 2 minutes. Samples were analyzed with SDS-PAGE using a 4-20% acrylamide gel. The gel was stained with Coomassie Blue and analyzed using Scion Image.

[2] = test system: barnacles; experiment: Barnacle reattachment assay (removal force); assay type: in vivo
Description: A barnacle reattachment assay was performed in the presence and absence of heparin. The barnacle reattachment assay (Rittschof et al., under review) allows for rapid assessment of barnacle adhesive strength. In this assay barnacles are grown on non-toxic silicone substrates. Barnacles are removed from the silicone surface using a hand-held mechanical force gauge. Removed barnacles are then placed on another surface to which they are allowed to reattach for one week. As cement production is continuous throughout a barnacle's life, reattachment is possible and strength of adhesion after one week is nearly identical to initial strength of adhesion (when removed from, and reattached to the same silicone substrate). This assay was utilized to determine if a coating on a surface decreases strength of adhesion by removing a barnacle from silicone and allowing it to reattach to test and control surfaces. Reattachment trials for heparin were conducted by removing a barnacle from a silicone panel and reattaching it to clean glass panels or heparin coated glass panels. […] The reattachment removal force for the barnacles is represented by the gray bars. Barnacles were reattached to glass panels coated with 0 (control), 0.1, 1.0 or 10.0 mg ml^−1 heparin for 7 days. The removal force decreased for all barnacles on heparin treatments. […] This pattern was shown on both heparin coated silicone and heparin coated glass. […] The same group of barnacles was successively reattached to the same treatment for 1, 2, 3 and 4 days (in that order); n=10 barnacles for dH2O and sucrose, n=10 for heparin 1 day, and n=9 for heparin 2, 3 and 4 days. […] Statistical comparisons were not conducted on 2, 3, and 4 day trials as there is a potential for the results to be influenced by previous reattachment trials.

[3] = test system: serine proteases active in barnacle cement polymerization; experiment: SDS-PAGE protein signature of unpolymerized barnacle glue with and without heparin; assay type: biochemical; details: reducing SDS-PAGE, 4-20% acrylamide gel, Coomassie Blue
Description: Techniques were developed and performed to harvest unpolymerized barnacle cement in microliter quantities. This enabled analysis of the proteins in barnacle cement using SDS-PAGE, which separates proteins based on size. SDS-PAGE provides a protein signature. SDS-PAGE was conducted under reducing conditions on a 4-20% acrylamide gradient gel in the presence and absence of heparin to determine any associated changes in protein signature (See FIG. 10). […] A precast, 4-20% acrylamide gel was used and stained with Coomassie Blue. […] The number of protein bands in the 85-115 kDa range is increased and of particular note, the 24 kDa protein and all the smaller peptides have disappeared in the presence of heparin.

O=C(O)CN(CCN(CC(=O)O)CC(=O)O)CC(=O)O [EDTA]
inhibition of polymerization of barnacle cement (number and intensity of proteins) [1]: effectively inhibit the polymerization of barnacle cement; also recorded: inhibited

O=C(O)CN(CCOCCOCCN(CC(=O)O)CC(=O)O)CC(=O)O [EGTA]
inhibition of polymerization of barnacle cement (number and intensity of proteins) [1]: effectively inhibit the polymerization of barnacle cement; also recorded: inhibited

heparin
inhibitory effect on cement polymerization compared with the other anticoagulant compounds tested [1]: most extensive and consistent inhibitory effect | inhibition of polymerization of barnacle cement (number and intensity of proteins) [1]: effectively inhibit the polymerization of barnacle cement | mean removal force versus sucrose ([2]; 1 mg ml^-1 coated T2 silicone, 1 day reattachment, p<0.05): significant difference from the sucrose results | reattachment removal force versus initial removal force ([2]; 10 mg ml^-1 heparin coated glass, 7 days, paired samples t-test p=0.017): highly significant difference from initial removal force | reattachment removal force ([2]; glass panels coated with 0.1, 1.0 or 10.0 mg ml^-1 heparin, reattached 7 days): decreased | force required for removal as concentration increases ([2]; heparin 0.1 to 10 mg ml^-1, heparin coated silicone and heparin coated glass): stepwise decrease | removal force over time reattached ([2]; heparin coated surfaces, reattached 1, 2, 3 and 4 days): no increase in removal force with increasing time reattached | bands smaller than 31 kDa (serine proteases and their peptide products) [3]: do not appear when heparin is added | protein signature of barnacle glue [3]: significantly different

CC(=O)CC(c1ccccc1)c1c(O)c2ccccc2oc1=O (stereo not drawn) [warfarin]
inhibition of polymerization of barnacle cement (number and intensity of proteins) [1]: effectively inhibit the polymerization of barnacle cement

From patent US20110041725A1, “ANTICOAGULANTS AS ANTIFOULING AGENTS” (priority 2007, published 2011)
